# Publication PMC9854762, “Antibiofilm and Anti-Quorum-Sensing Activities of Novel Pyrazole and Pyrazolo[1,5-a]pyrimidine Derivatives as Carbonic Anhydrase I and II Inhibitors: Design, Synthesis, Radiosterilization, and Molecular Docking Studies” (Antibiotics, 2023)
# Read-outs that look alike come from different tables or passages of the source.
# Legend:
# E. faecalis DH-5478 [1] = test: Agar well-diffusion assay; format: cell-based; conditions: Enterococcus faecalis
# Experimental: (§1) The synthesized compounds were initially screened for their in vitro antibacterial activity against the different Gram-positive and Gram-negative bacteria, tested using the agar well-diffusion assay. The turbidity of the bacterial suspensions was established to the 0.5 McFarland turbidity standard. The activity was performed on TS agar plates. The bacteria were spread on the surface of the agar plates, and 10 mm wells were screwed into the agar plates. The assay was performed under aseptic conditions. An aliquot of 50 µL of each tested compound (10 mM) was added to the wells, and the plates were incubated overnight at 37 °C. Both Erythromycin and Amikacin antibiotic disks were used as positive control, while DMSO solvent was used as a negative control in this study. The diameters of inhibition zones were measured and recorded in mm. A comparative study of the synthesized compounds was determined. The experiment was performed in triplicates.
# S. aureus DH-432 [2] = test: Agar well-diffusion assay; format: cell-based; conditions: Staphylococcus aureus
# Experimental: as §1
# S. pyogenes DH-3467 [3] = test: Agar well-diffusion assay; format: cell-based; conditions: Streptococcus pyogenes
# Experimental: as §1
# E. faecalis DH-5478 [4] = test: Broth microdilution MIC/MBC; format: cell-based, Enterococcus faecalis; conditions: for MIC: Enterococcus faecalis, DH5478, 24 h, read-out: MIC (Mean ± SEM); for MBC/MIC: value in brackets
# Experimental: (§2) The broth microdilution method was taken as a basis to detect the MICs of pyrazole compounds against tested clinical isolates, according to the Clinical Laboratory and Standards Institute guidelines. The broth cultures were used to prepare the bacterial inoculums, and the suspensions were adjusted to the standard 0.5 McFarland turbidity. Stock solutions of the synthesized pyrazoles were prepared in pure DMSO and further serially diluted with TS broth in the concentration range from 128 µg/mL to 0.0625 µg/mL. A well containing noninoculated TS broth, free of any antimicrobial agents, was also included to ensure the medium sterility, while Erythromycin and Amikacin served as positive controls. Bacterial growth was determined by adding 20 µL of 0.5% TTC (2,3,5-triphenyltetrazolium chloride) aqueous solution. […] All experiments were repeated three times. The bactericidal effect from each concentration of the pyrazole and pyrazolo[1,5-a]pyrimidine derivatives showing growth inhibition was further studied. For this study, a loopful of 5 µL was taken from each no-visible growth tube and streaked onto plates of TS agar.
# S. aureus DH-432 [5] = test: Broth microdilution MIC/MBC; format: cell-based, Staphylococcus aureus; conditions: for MIC: Staphylococcus aureus, DH432, 24 h, read-out: MIC (Mean ± SEM); for MBC/MIC: value in brackets
# Experimental: as §2
# S. pyogenes DH-3467 [6] = test: Broth microdilution MIC/MBC; format: cell-based, Streptococcus pyogenes; conditions: for MIC: Streptococcus pyogenes, DH3467, 24 h, read-out: MIC (Mean ± SEM); for MBC/MIC: value in brackets
# Experimental: as §2
# Gram-positive isolates = test: Broth microdilution MIC/MBC, summary; format: cell-based; conditions: Gram-positive isolates (E. faecalis, S. aureus, S. pyogenes)
# Experimental: as §2
# A. baumannii DH-243 [7] = test: Agar well-diffusion assay; format: cell-based; conditions: Acinetobacter baumannii, DH243; A. baumannii DH-243; 50 µL of 10 mM per well; read-out: Diameter of Inhibition Zones (AZOI)
# Experimental: as §1
# E. coli DH-5987 [8] = test: Agar well-diffusion assay; format: cell-based; conditions: Escherichia coli, DH5987, 50 µL of 10 mM per well, read-out: Diameter of Inhibition Zones (AZOI)
# Experimental: as §1
# P. aeruginosa DH-5698 [9] = test: Agar well-diffusion assay; format: cell-based, Pseudomonus aeruginosa; conditions: Pseudomonas aeruginosa, DH5698; P. aeruginosa DH-5698; 50 µL of 10 mM per well; read-out: Diameter of Inhibition Zones (AZOI)
# Experimental: as §1
# A. baumannii DH-243 [10] = test: Broth microdilution MIC/MBC; format: cell-based, Acinetobacter baumannii; conditions: for MIC: Acinetobacter baumannii, DH243, 24 h, read-out: MIC (Mean ± SEM); for MBC/MIC: value in brackets
# Experimental: as §2
# E. coli DH-5987 [11] = test: Broth microdilution MIC/MBC; format: cell-based, Escherichia coli; conditions: E. coli DH-5987; for MBC/MIC: value in brackets; for MIC: Escherichia coli, DH5987, 24 h, read-out: MIC (Mean ± SEM)
# Experimental: as §2
# P. aeruginosa DH-5698 [12] = test: Broth microdilution MIC/MBC; format: cell-based, Pseudomonus aeruginosa; conditions: for MIC: Pseudomonas aeruginosa, DH5698, 24 h, read-out: MIC (Mean ± SEM); for MBC/MIC: value in brackets
# Experimental: as §2
# [13] = DH5478, E. faecalis DH-5478, 50 µL of 10 mM per well, read-out: Diameter of Inhibition Zones (AZOI)
# [14] = DH432, S. aureus DH-432, 50 µL of 10 mM per well, read-out: Diameter of Inhibition Zones (AZOI)
# [15] = DH3467, S. pyogenes DH-3467, 50 µL of 10 mM per well, read-out: Diameter of Inhibition Zones (AZOI)
Structure (SMILES),MIC (E. faecalis DH-5478 [4]),MBC/MIC (E. faecalis DH-5478 [4]),MIC (S. aureus DH-432 [5]),MBC/MIC (S. aureus DH-432 [5]),MIC (S. pyogenes DH-3467 [6]),MBC/MIC (S. pyogenes DH-3467 [6]),zone of inhibition at 10000 µM (A. baumannii DH-243 [7]),zone of inhibition at 10000 µM (E. coli DH-5987 [8]),zone of inhibition at 10000 µM (E. faecalis DH-5478 [1]; [13]),zone of inhibition at 10000 µM (S. aureus DH-432 [2]; [14]),zone of inhibition at 10000 µM (S. pyogenes DH-3467 [3]; [15]),zone of inhibition at 10000 µM (P. aeruginosa DH-5698 [9]),MIC (A. baumannii DH-243 [10]),MBC/MIC (A. baumannii DH-243 [10]),MBC/MIC (E. coli DH-5987 [11]),MIC (E. coli DH-5987 [11]),MIC (P. aeruginosa DH-5698 [12]),MBC/MIC (P. aeruginosa DH-5698 [12]),melting point,other results
"CC[C@H]1OC(=O)[C@H](C)[C@@H](O[C@H]2C[C@@](C)(OC)[C@@H](O)[C@H](C)O2)[C@H](C)[C@@H](O[C@@H]2O[C@H](C)C[C@H](N(C)C)[C@H]2O)[C@](C)(O)C[C@@H](C)C(=O)[C@H](C)[C@@H](O)[C@]1(C)O [E, Erythromycin, reference compound]",32 ± 0.1 µg/mL,4,8 ± 0.2 µg/mL,2,64 ± 0.3 µg/mL,2,–,–,–,–,–,–,–,–,–,–,–,–,–,"zone of inhibition at 10000 µM (E. faecalis DH-5478 [1]; DH5478, read-out: Diameter of Inhibition Zones (AZOI)): 11 mm; zone of inhibition at 10000 µM (S. aureus DH-432 [2]; DH432, read-out: Diameter of Inhibition Zones (AZOI)): 12 mm; zone of inhibition at 10000 µM (S. pyogenes DH-3467 [3]; DH3467, read-out: Diameter of Inhibition Zones (AZOI)): 10.5 mm; MBC (Gram-positive isolates; read-out: MBC): 16 to 128 µg/mL; MIC (Gram-positive isolates; read-out: MIC): 8 to 64 µg/mL"
"CCOC(=O)c1ccc(N=Nc2c(N)nn3c(O)c(C#N)c(-c4ccc(Cl)cc4)nc23)cc1 [Compound 10b, Ethyl 4-((2-amino-5-(4-chlorophenyl)-6-cyano-7-hydroxypyrazolo[1,5-a]pyrimidin-3-yl)diazenyl)benzoate]",2 ± 0.3 µg/mL,1,1.5 ± 0.3 µg/mL,0.5,1.5 ± 0.2 µg/mL,0.5,24.2 mm,27.1 mm,25.1 mm,26.8 mm,26.3 mm,26.3 mm,2 ± 0.2 µg/mL,1,0.5,0.75 ± 0.1 µg/mL,1.5 ± 0.1 µg/mL,0.5,270 to 272 °C,–
"CCOC(=O)c1ccc(N=Nc2c(N)nn(C(N)=S)c2N)cc1 [Compound 3c, Ethyl 4-((3,5-diamino-1-carbamothioyl-1H-pyrazol-4-yl)diazenyl)benzoate]",1 ± 0.3 µg/mL,1,0.75 ± 0.2 µg/mL,1,0.75 ± 0.2 µg/mL,0.5,22.5 mm,24.7 mm,21.3 mm,23.8 mm,22.6 mm,23.2 mm,2 ± 0.2 µg/mL,1,0.5,0.75 ± 0.5 µg/mL,1 ± 0.3 µg/mL,1,280 to 282 °C,–
"CCOC(=O)c1ccc(N=Nc2c(N)nn(C(O)=CC#N)c2N)cc1 [Compound 4, Ethyl 4-((3,5-diamino-1-(2-cyano-1-hydroxyvinyl)-1H-pyrazol-4-yl)diazenyl)benzoate]",2 ± 0.3 µg/mL,0.5,1 ± 0.4 µg/mL,0.5,1.5 ± 0.3 µg/mL,0.5,21.3 mm,22.4 mm,22.1 mm,24.7 mm,23.4 mm,20.5 mm,2 ± 0.4 µg/mL,0.5,1,0.75 ± 0.3 µg/mL,1.5 ± 0.2 µg/mL,1,290 to 292 °C,–
